The experiment deals with human NK cells from PBMC. Kind of experiment: Fold expansion and overall yield of transduced NK cells in culture. The experiment is classed as cell-based. Particulars: BX795 (1.5 μM) during transduction combined with pre-stimulation with SMI-LCL feeder cells (FIG. 28A, 28B).

Here are results for one compound from patent publication US12516292B2, “Methods of producing modified natural killer cells and methods of use” (The United States of America, as represented by the …, priority 2016, dated 2026).

As for `O=C(NCCCNc1nc(Nc2cccc(NC(=O)N3CCCC3)c2)ncc1I)c1cccs1` [BX795], the “subsequent proliferation of lentiviral transduced ex-vivo expanded human NK cells” value is given as “increased subsequent proliferation”.
